Source: ChEMBL document CHEMBL1201861, “Genomics of Drug Sensitity in Cancer screening data, Wellcome Trust Sanger Institute”

Columns and labels:
Assay in all cases: cells
CAL-62 = type: functional, cell-based, Homo sapiens; settings: Homo sapiens, CAL-62;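 further: growth inhibition of CAL-62 cells, read out with a cell viability assay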
Description: SANGER: Inhibition of human CAL-62 cell growth in a cell viability assay.

JVM-3 = type: functional, cell-based; settings: Homo sapiens;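 further: growth inhibition of human JVM-3 cells, read out with a cell viability assay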
Description: SANGER: Inhibition of human JVM-3 cell growth in a cell viability assay.

697 = type: functional, cell-based; settings: Homo sapiens
Description: SANGER: Inhibition of human 697 cell growth in a cell viability assay.

HCC38 = type: functional, cell-based, Homo sapiens; settings: Homo sapiens, HCC38;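 further: cell viability assay on the human HCC38 cell line, with IC50 marking the concentration that inhibits cell growth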
Description: SANGER: Inhibition of human HCC38 cell growth in a cell viability assay.

DU-145 = type: functional, cell-based, Homo sapiens; settings: Homo sapiens, DU-145
Description: SANGER: Inhibition of human DU-145 cell growth in a cell viability assay.

D-392MG = type: functional, cell-based, Homo sapiens; settings: Homo sapiens, D-392MG
MOLT-4 = type: functional, cell-based; settings: Homo sapiens;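 further: growth inhibition of MOLT-4 cells, determined with a cell viability readout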
Description: SANGER: Inhibition of human MOLT-4 cell growth in a cell viability assay.

A204 = type: functional, cell-based, Homo sapiens; settings: Homo sapiens, A204;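 further: growth inhibition of human A204 cells, read out with a cell viability assay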
Description: SANGER: Inhibition of human A204 cell growth in a cell viability assay.

HCE-T = type: functional, cell-based, Homo sapiens; settings: Homo sapiens, HCE-T;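 further: cell viability assay read-out, reporting inhibition of HCE-T cell growth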
Description: SANGER: Inhibition of human HCE-T cell growth in a cell viability assay.

OCI-AML2 = type: functional, cell-based; settings: Homo sapiens;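 further: growth inhibition of OCI-AML2 cells, read out with a cell viability assay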
Description: SANGER: Inhibition of human OCI-AML2 cell growth in a cell viability assay.

NCI-H69 = type: functional, cell-based; settings: Homo sapiens;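 further: growth inhibition of the cell line, read out with a cell viability assay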
Description: SANGER: Inhibition of human NCI-H69 cell growth in a cell viability assay.

KP-N-YS = type: functional, cell-based; settings: Homo sapiens;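 further: cell viability assay measuring inhibition of cell line growth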
Description: SANGER: Inhibition of human KP-N-YS cell growth in a cell viability assay.

COLO-684 = type: functional, cell-based; settings: Homo sapiens
Description: SANGER: Inhibition of human COLO-684 cell growth in a cell viability assay.

UMUC3 = type: functional, cell-based, Homo sapiens; settings: Homo sapiens, UMUC3;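 further: growth inhibition of human UM-UC-3 cells, read out with a cell viability assay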
Description: SANGER: Inhibition of human UM-UC-3 cell growth in a cell viability assay.

MN-60 = type: functional, cell-based; settings: Homo sapiens;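 further: growth inhibition of the MN-60 cell line, determined with a cell viability assay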
Description: SANGER: Inhibition of human MN-60 cell growth in a cell viability assay.

DOK = type: functional, cell-based, Homo sapiens; settings: Homo sapiens, DOK;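 further: cell viability assay read-out, values reflect inhibition of cell growth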
Description: SANGER: Inhibition of human DOK cell growth in a cell viability assay.

Hs-578T = type: functional, cell-based, Homo sapiens; settings: Homo sapiens, Hs-578T
Description: SANGER: Inhibition of human Hs-578-T cell growth in a cell viability assay.

GI-1 = type: functional, cell-based, Homo sapiens; settings: Homo sapiens, GI-1;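 further: growth inhibition of human GI-1 cells, measured with a cell viability readout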
Description: SANGER: Inhibition of human GI-1 cell growth in a cell viability assay.

P30-OHK = type: functional, cell-based; settings: Homo sapiens;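 further: growth inhibition of the P30-OHK cell line, read out with a cell viability assay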
Description: SANGER: Inhibition of human P30-OHK cell growth in a cell viability assay.

HD-MY-Z = type: functional, cell-based, Homo sapiens; settings: Homo sapiens, HD-MY-Z;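 further: growth inhibition of HD-MY-Z cells, read out with a cell viability assay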
Description: SANGER: Inhibition of human HD-MY-Z cell growth in a cell viability assay.

MEL-HO = type: functional, cell-based, Homo sapiens; settings: Homo sapiens, MEL-HO
Description: SANGER: Inhibition of human MEL-HO cell growth in a cell viability assay.

ACN = type: functional, cell-based, Homo sapiens; settings: Homo sapiens, ACN;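 further: growth inhibition of the human ACN cell line, read out via cell viability testing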
Description: SANGER: Inhibition of human ACN cell growth in a cell viability assay.

SK-N-DZ = type: functional, cell-based, Homo sapiens; settings: Homo sapiens, SK-N-DZ;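 further: growth inhibition of the cancer cell line, read out through a viability assay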
Description: SANGER: Inhibition of human SK-N-DZ cell growth in a cell viability assay.

T47D = type: functional, cell-based, Homo sapiens; settings: Homo sapiens, T47D;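 further: growth inhibition of human T47D cells, measured with a cell viability assay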
Description: SANGER: Inhibition of human T47D cell growth in a cell viability assay.

CGTH-W-1 = type: functional, cell-based, Homo sapiens; settings: Homo sapiens, CGTH-W-1;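 further: growth inhibition of human CGTH-W-1 cells measured by cell viability assay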
Description: SANGER: Inhibition of human CGTH-W-1 cell growth in a cell viability assay.

Mo = type: functional, cell-based; settings: Homo sapiens
Description: SANGER: Inhibition of human Mo-T cell growth in a cell viability assay.

NH-12 = type: functional, cell-based, Homo sapiens; settings: Homo sapiens, NH-12;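 further: growth inhibition of NH-12 cells, read out with a cell viability assay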
Description: SANGER: Inhibition of human NH-12 cell growth in a cell viability assay.

UO-31 = type: functional, cell-based; settings: Homo sapiens;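 further: cell viability assay measuring inhibition of cell growth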
Description: SANGER: Inhibition of human U031 cell growth in a cell viability assay.

D-263MG = type: functional, cell-based, Homo sapiens; settings: Homo sapiens, D-263MG
Description: SANGER: Inhibition of human D-263MG cell growth in a cell viability assay.

EKVX = type: functional, cell-based, Homo sapiens; settings: Homo sapiens, EKVX;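 further: growth inhibition of human EKVX cells, read out with a cell viability assay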
Description: SANGER: Inhibition of human EKVX cell growth in a cell viability assay.

RO82-W-1 = type: functional, cell-based, Homo sapiens; settings: Homo sapiens, RO82-W-1;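 further: growth inhibition of human RO82-W-1 cells, measured with a cell viability assay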
Description: SANGER: Inhibition of human RO82-W-1 cell growth in a cell viability assay.

SW872 = type: functional, cell-based, Homo sapiens; settings: Homo sapiens, SW872;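 further: growth inhibition of SW872 cells, read out by a viability assay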
Description: SANGER: Inhibition of human SW872 cell growth in a cell viability assay.

MS-1 = type: functional, cell-based; settings: Homo sapiens;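 further: growth inhibition of MS-1 cells, read out by cell viability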
Description: SANGER: Inhibition of human MS-1 cell growth in a cell viability assay.

BCPAP = type: functional, cell-based, Homo sapiens; settings: Homo sapiens, BCPAP;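 further: growth inhibition of BCPAP cells, read out in a cell viability assay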
Description: SANGER: Inhibition of human BCPAP cell growth in a cell viability assay.

SHP77 = type: functional, cell-based, Homo sapiens, SHP-77; settings: Homo sapiens, SHP77;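 further: growth inhibition of human SHP-77 cells measured by a cell viability assay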
Description: SANGER: Inhibition of human SHP-77 cell growth in a cell viability assay.

CAL-33 = type: functional, cell-based, Homo sapiens; settings: Homo sapiens, CAL-33;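 further: growth inhibition of CAL-33 cells, read out with a cell viability assay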
Description: SANGER: Inhibition of human CAL-33 cell growth in a cell viability assay.

OE19 = type: functional, cell-based, Homo sapiens; settings: Homo sapiens, OE19;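 further: growth inhibition of OE19 cells, measured through a cell viability read-out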
Description: SANGER: Inhibition of human OE19 cell growth in a cell viability assay.

MMAC-SF = type: functional, cell-based, Homo sapiens; settings: Homo sapiens, MMAC-SF;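 further: growth inhibition of human MMAC-SF cells, read out with a cell viability assay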
Description: SANGER: Inhibition of human MMAC-SF cell growth in a cell viability assay.

DEL = type: functional, cell-based; settings: Homo sapiens;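 further: growth inhibition of the human DEL cell line, read out with a cell viability assay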
Description: SANGER: Inhibition of human DEL cell growth in a cell viability assay.

SW48 = type: functional, cell-based, Homo sapiens; settings: Homo sapiens, SW48;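 further: growth inhibition of SW48 cells, read out with a cell viability assay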
Description: SANGER: Inhibition of human SW48 cell growth in a cell viability assay.

NCI-H1299 = type: functional, cell-based, Homo sapiens; settings: Homo sapiens, NCI-H1299;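 further: growth inhibition of human NCI-H1299 cells, read out by a cell viability assay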
Description: SANGER: Inhibition of human NCI-H1299 cell growth in a cell viability assay.

NCI-H727 = type: functional, cell-based, Homo sapiens; settings: Homo sapiens, NCI-H727;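 further: growth inhibition of human NCI-H727 cells, read out with a cell viability assay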
Description: SANGER: Inhibition of human NCI-H727 cell growth in a cell viability assay.

HO-1-N-1 = type: functional, cell-based, Homo sapiens; settings: Homo sapiens, HO-1-N-1;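 further: growth inhibition of human HO-1-N-1 cells, read out with a cell viability assay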
Description: SANGER: Inhibition of human HO-1-N-1 cell growth in a cell viability assay.

CP66-MEL = type: functional, cell-based, Homo sapiens; settings: Homo sapiens, CP66-MEL;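 further: growth inhibition of CP66-MEL cells determined in a cell viability assay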
Description: SANGER: Inhibition of human CP66-MEL cell growth in a cell viability assay.

COLO-741 = type: functional, cell-based, Homo sapiens; settings: Homo sapiens, COLO-741
Description: SANGER: Inhibition of human COLO-741 cell growth in a cell viability assay.

BPH-1 = type: functional, cell-based, Homo sapiens; settings: Homo sapiens, BPH-1;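 further: cell viability assay measuring growth inhibition of human BPH-1 cells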
Description: SANGER: Inhibition of human BPH-1 cell growth in a cell viability assay.

SK-LU-1 = type: functional, cell-based, Homo sapiens; settings: Homo sapiens, SK-LU-1;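 further: cell viability assay measuring growth inhibition of human SK-LU-1 cells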
Description: SANGER: Inhibition of human SK-LU-1 cell growth in a cell viability assay.

NCI-H446 = type: functional, cell-based; settings: Homo sapiens;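 further: growth inhibition of NCI-H446 cells determined by a cell viability assay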
Description: SANGER: Inhibition of human NCI-H446 cell growth in a cell viability assay.

NCI-H1693 = type: functional, cell-based, Homo sapiens; settings: Homo sapiens, NCI-H1693;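 further: growth inhibition of the human cell line, read out with a cell viability assay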
Description: SANGER: Inhibition of human NCI-H1693 cell growth in a cell viability assay.

NB12 = type: functional, cell-based, Homo sapiens; settings: Homo sapiens, NB12;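 further: growth inhibition of human NB12 cells, read out by a cell viability assay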
Description: SANGER: Inhibition of human NB12 cell growth in a cell viability assay.

ESS-1 = type: functional, cell-based, Homo sapiens; settings: Homo sapiens, ESS-1;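 further: growth inhibition of human ESS-1 cells, read out by a cell viability assay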
Description: SANGER: Inhibition of human ESS-1 cell growth in a cell viability assay.

Measured: IC50

CC(=O)O[C@@H]1[C@@H](OC(C)=O)[C@@H](O)[C@H](Oc2c(-c3ccc(O)cc3)oc3cc(O)cc(O)c3c2=O)O[C@H]1C
> 10000 nM: JVM-3 | MOLT-4 | UMUC3 | Hs-578T | BPH-1
> 10 µM: all other assays above

O=C1N=C(NCc2cccs2)S/C1=C\c1ccc2ncccc2c1
> 5000 nM: JVM-3 | MOLT-4
4.38 µM: MN-60
2.02 µM: SK-N-DZ
2740 nM: UMUC3
2970 nM: BPH-1
2280 nM: Hs-578T
not listed: CP66-MEL
> 5 µM: all other assays above

COc1ccc(-c2ccc3c(N4CCOC[C@@H]4C)nc(N4CCOC[C@@H]4C)nc3n2)cc1CO [AZD-8055]
0.968 µM: DEL
1480 nM: UMUC3
1.98 µM: NCI-H1693
1.39 µM: SW872
0.327 µM: P30-OHK
0.678 µM: MN-60 | MEL-HO
0.681 µM: HO-1-N-1
0.392 µM: SK-LU-1
0.841 µM: HD-MY-Z
677 nM: MOLT-4
1.67 µM: NCI-H69
0.275 µM: T47D
1.18 µM: HCE-T
0.457 µM: COLO-684
463 nM: JVM-3
1.11 µM: NH-12 | SW48
0.588 µM: BCPAP
0.943 µM: ACN
1.14 µM: EKVX
599 nM: Hs-578T
1.52 µM: RO82-W-1
884 nM: BPH-1
0.274 µM: 697
0.865 µM: CAL-33
0.799 µM: CAL-62
1.33 µM: D-263MG | NCI-H446
0.431 µM: KP-N-YS
0.19 µM: A204
1.56 µM: CGTH-W-1
0.513 µM: DOK
1.5 µM: NCI-H1299
not listed: MMAC-SF | CP66-MEL
> 2 µM: all other assays above

O=c1cc(-c2cccc3c2Sc2ccccc2S3)oc(N2CCOCC2)c1 [KU-55933]
3.27 µM: DU-145
> 10000 nM: JVM-3 | MOLT-4 | UMUC3 | Hs-578T | BPH-1
not listed: NCI-H69
> 10 µM: all other assays above

COc1ccc(C2=N[C@@H](c3ccc(Cl)cc3)[C@@H](c3ccc(Cl)cc3)N2C(=O)N2CCNC(=O)C2)c(OC(C)C)c1 [NUTLIN-3]
> 8000 nM: UMUC3 | Hs-578T | BPH-1
5.45 µM: 697
4.02 µM: NH-12
2590 nM: JVM-3
2330 nM: MOLT-4
3.06 µM: A204
5.86 µM: MEL-HO
3.44 µM: MN-60
not listed: CP66-MEL
> 8 µM: all other assays above
